Read-outs that look alike come from different tables or passages of the source.
Experiments:
[1] = cited from earlier work
[2] = Dissolution profile in biorelevant media (FaSSIF / FaSSGF), paddle apparatus; format: physicochemical; details: FaSSIF (fenofibrate, nifedipine, nimodipine, nabumetone) or FaSSGF (ibuprofen, gemfibrozil); 900 ml, 37° C., 75 rpm
Protocol: Dissolution profile: The drug release profiles of the above formulations and the reference products (TRICOR ® 48 mg Fenofibrated tablets and Buplex® 200 mg Ibuprofen tablets) was tested in biorelevant dissolution media; using Fasted State Simulated Intestinal Fluid (FaSSIF) for Tricor® and Fasted State Simulated Gastric Fluid (FaSSGF) for Buplex®. USP […] (Paddle) was used.
Media temperature: 37° C.;
Paddle rotation speed: 75 rpm;
The method used to measure the dissolution rate is as described under ‘dissolution profile’ in the previous example. […] All other conditions remained the same.

SMILES: Cc1ccc(C)c(OCCCC(C)(C)C(=O)O)c1 [Gemfibrozil]
- solubility in water ([1]; at 25° C.): < 1000 µg/mL

SMILES: CC(C)Cc1ccc(C(C)C(=O)O)cc1 (stereo not shown) [Ibuprofen, iso-butyl-propanoic-phenolic acid]
- % drug dissolved / rate and extent of dissolution versus marketed product [2]: 1:2.7 ratio of Maisine:Kolliphor showed higher dissolution than a 1:1.8 ratio
- solubility in water [1]: Less than 1 mg/ml

SMILES: COc1ccc2cc(CCC(C)=O)ccc2c1 [Nabumetone]
- solubility in water (in words) [1]: practically insoluble in water
